Blank lines part the entries; values can stand above or below the molecule they belong to.
Assays:
rats [1] = test: Quantitative ex vivo gamma counting of ^99mTc-duramycin uptake in excised tissues after chemotoxic drug
Method: This initial quantitative study was conducted by determining changes in radioactivity uptake in excised tissues using gamma counting ex vivo. Experiments were designed to survey changes in ^99mTc-duramycin uptake in tissues from treated versus untreated control groups after administration of a single dosage of each chemotherapeutic drug for each population of animals. […] Accordingly, at designated time post-treatment, ^99mTc-duramycin was injected intravenously and each animal was euthanized for tissue collection and gamma counting. This is a standard practice in radionuclide studies that provides precise, quantitative biodistribution data for measuring changes in tracer uptake.
The data can be expressed in two ways—net change in ^99mTc-duramycin uptake per unit tissue in cyclophosphamide-treated tissues relative to the mean value of the non-treated control population (FIG. 1A), and fold changes in ^99mTc-duramycin uptake over the mean of control (1B).
An organ, such as the kidney, consists of different anatomical components (cortex, medulla, hilum), where the in vivo imaging data provide more spatial information by identifying signal changes within the substructures of an organ (see in vivo sections below).
Although the ex vivo gamma counting is a standard practice in radionuclide studies, a notable limitation is that the tissue collection may be prone to sampling errors. In addition, this approach provides limited spatial information in terms of the distribution within an intact organ/tissue.

rats [2] = test: In vivo single time point SPECT/CT/MRI imaging of ^99mTc-duramycin uptake (toxicity scan)
Method: (§1) The single time point studies were terminal so that they allowed immediate tissue retrieval for cross-validation using histopathological analyses. […] Each animal was injected with about 2 mCi of ^99mTc-duramycin and after 1 hour the SPECT/CT/MRI data were acquired. From each group, the animals were immediately euthanized after imaging. The organs and tissues from three randomly selected individuals were collected, fixed and processed for histopathology.
A second group of animals was with methotrexate as directed by the literature in an effort to examine whether early changes in toxicity would correlate with increases in ^99mTc-duramycin uptake.

rats [3] = test: Histopathology of organs and tissues collected after single time point imaging
Method: as §1

rats [4] = settings: cyclophosphamide single dose; each individual normalized to own baseline
Method: This approach involved the acquisition of a baseline scan, prior to drug administration, followed by multiple post-treatment scans spanning the acute phase at 8, 48, 96, and 168 hours. […] In addition, the baseline scan for each animal serves as an internal control. The repeated noninvasive imaging allowed continuous monitoring of tissue changes with individualized data analysis.

[5] = cyclophosphamide single dose 80 mg/kg i.p., 2 days
[6] = cyclophosphamide single dose, day-2

SMILES: O=P1(N(CCCl)CCCl)NCCCO1 (stereo not drawn) [cyclophosphamide]
tissues with highest fold changes in ^99mTc-duramycin uptake (rats [1]; [5]): thymus, adipose tissue, pancreas, brain, right ventricle, liver and bone
tissues with the largest elevation in ^99mTc-duramycin uptake (rats [1]; [5]): kidneys, liver, spleen, thymus, lung, small intestine and bone
key tissues with changes in ^99mTc-duramycin uptake (rats [2]; [6]): kidneys—medulla and cortex, spleen, thymus and gut
region of the kidneys affected (rats [2]; [6]): primarily affect the infundibulum of the kidneys
tissues with statistically elevated, relatively low signals (rats [2]; [6]): bones, adipose tissue, heart, lung, muscle, skin and stomach
apoptotic index, kidney medulla (rats [3]; [6]): significantly elevated apoptotic index in the local tissue
apoptotic index, thymus (rats [3]; [6]): significantly elevated apoptotic index
histopathology of bones (epiphysis regions, marrow) (rats [3]; [6]): extensive decellularization in the marrow
tissues with elevated coefficients of variation compared to the baseline (rats [4]): bone, colon, gut, heart, skin, and thymus

SMILES: N.N.[Cl][Pt][Cl] [cisplatin]
histopathology of kidney (rats [3]; rat, in vivo): cellular degradation and significantly elevated apoptosis in the cortical region

histopathology of joints (rats [3]; rat, in vivo): joint degeneration and thrombosis
SMILES: CN(Cc1cnc2nc(N)nc(N)c2n1)c1ccc(C(=O)N[C@@H](CCC(=O)O)C(=O)O)cc1 [methotrexate]
change in ^99mTc-duramycin uptake in tissues (rats [1]; rat, in vivo, 100 mg/kg): notable elevation in ^99mTc-duramycin uptake in a number of tissues
most prominent tissues according to fold changes (rats [1]; rat, in vivo, 100 mg/kg): small intestine, colon, liver, thymus and kidneys
tissues with the highest increase in ^99mTc-duramycin uptake (rats [1]; rat, in vivo, 100 mg/kg): kidneys, small intestine, liver, and colon
changes in skin signals (rats [2]; rat, in vivo): non-uniform throughout the body
signals in the joints (rats [2]; rat, in vivo): drastically elevated signals in the joints
tissues with highest changes in terms of fold elevation (rats [2]; rat, in vivo): colon, kidney—medulla, bone, spleen, and kidney—cortex
tissues with the highest signal changes as net ^99mTc-duramycin uptake per unit tissue (rats [2]; rat, in vivo): kidneys and colon
